Numbers after ± are expanded uncertainties.
Experiment: activity coefficient (dimensionless); of the first substance listed, at infinite dilution; xn = mol fraction of the nth substance listed
Conditions: 101.33 kPa, Liquid, Chromatography, x1 = 0

| Compound | activity coefficient (303 K) | activity coefficient (313 K) | activity coefficient (323 K) | activity coefficient (333 K) | activity coefficient (343 K) | activity coefficient (353 K) |
| --- | --- | --- | --- | --- | --- | --- |
| CCCO [propan-1-ol] + C[n+]1ccn(CCO)c1.O=S(=O)([O-])C(F)(F)C(F)(F)C(F)(F)C(F)(F)F | 2.22 ± 0.11 | 2.07 ± 0.1 | 1.91 ± 0.1 | 1.81 ± 0.1 | 1.66 ± 0.09 | 1.53 ± 0.09 |
| Cc1ccccc1 [toluene] + C[n+]1ccn(CCO)c1.O=S(=O)([O-])C(F)(F)C(F)(F)C(F)(F)C(F)(F)F | 7.4 ± 0.26 | 6.83 ± 0.24 | 6.21 ± 0.22 | 5.44 ± 0.19 | 4.94 ± 0.18 | 4.44 ± 0.16 |
| CCCCCCCC [octane] + C[n+]1ccn(CCO)c1.O=S(=O)([O-])C(F)(F)C(F)(F)C(F)(F)C(F)(F)F | 99 ± 3.6 | 75.8 ± 2.8 | 61.2 ± 2.2 | 47.3 ± 1.7 | 37.1 ± 1.4 | 28.4 ± 1 |
| CCO [ethanol] + C[n+]1ccn(CCO)c1.O=S(=O)([O-])C(F)(F)C(F)(F)C(F)(F)C(F)(F)F | 1.56 ± 0.09 | 1.48 ± 0.09 | 1.38 ± 0.09 | 1.31 ± 0.09 | 1.22 ± 0.08 | 1.14 ± 0.08 |
| c1ccccc1 [benzene] + C[n+]1ccn(CCO)c1.O=S(=O)([O-])C(F)(F)C(F)(F)C(F)(F)C(F)(F)F | 4.71 ± 0.17 | 4.27 ± 0.16 | 3.85 ± 0.15 | 3.34 ± 0.13 | 2.95 ± 0.12 | 2.65 ± 0.12 |
| Cc1cccc(C)c1 [1,3-dimethylbenzene] + C[n+]1ccn(CCO)c1.O=S(=O)([O-])C(F)(F)C(F)(F)C(F)(F)C(F)(F)F | 11.6 ± 0.42 | 10.8 ± 0.39 | 9.86 ± 0.35 | 8.71 ± 0.31 | 7.91 ± 0.28 | 7.2 ± 0.26 |
| C#CCCCCCC [1-octyne] + C[n+]1ccn(CCO)c1.O=S(=O)([O-])C(F)(F)C(F)(F)C(F)(F)C(F)(F)F | 26.2 ± 0.94 | 23.8 ± 0.85 | 21.2 ± 0.76 | 19.1 ± 0.69 | 16.9 ± 0.61 | 14.8 ± 0.53 |
| C=CCCCC [hex-1-ene] + C[n+]1ccn(CCO)c1.O=S(=O)([O-])C(F)(F)C(F)(F)C(F)(F)C(F)(F)F | 15.7 ± 0.57 | 12.4 ± 0.45 | 9.71 ± 0.35 | 7.62 ± 0.27 | 6.07 ± 0.22 | 4.97 ± 0.18 |
| Cc1ccc(C)cc1 [1,4-dimethylbenzene] + C[n+]1ccn(CCO)c1.O=S(=O)([O-])C(F)(F)C(F)(F)C(F)(F)C(F)(F)F | 11.9 ± 0.43 | 11 ± 0.39 | 9.88 ± 0.35 | 8.78 ± 0.31 | 8 ± 0.28 | 7.59 ± 0.27 |
| C#CCCC [1-pentyne] + C[n+]1ccn(CCO)c1.O=S(=O)([O-])C(F)(F)C(F)(F)C(F)(F)C(F)(F)F | 5.99 ± 0.21 | 5.07 ± 0.18 | 4.21 ± 0.16 | 3.68 ± 0.14 | 3.11 ± 0.13 | 2.59 ± 0.12 |
| CCc1ccccc1 [ethylbenzene] + C[n+]1ccn(CCO)c1.O=S(=O)([O-])C(F)(F)C(F)(F)C(F)(F)C(F)(F)F | 12.1 ± 0.43 | 11 ± 0.39 | 10.1 ± 0.36 | 8.82 ± 0.31 | 7.93 ± 0.28 | 7.09 ± 0.25 |
| CCCCCCC [heptane] + C[n+]1ccn(CCO)c1.O=S(=O)([O-])C(F)(F)C(F)(F)C(F)(F)C(F)(F)F | 53 ± 1.9 | 39.7 ± 1.4 | 30.9 ± 1.1 | 23.6 ± 0.86 | 18 ± 0.65 | 13.9 ± 0.5 |
| CC1CCCCC1 [methylcyclohexane] + C[n+]1ccn(CCO)c1.O=S(=O)([O-])C(F)(F)C(F)(F)C(F)(F)C(F)(F)F | 38.1 ± 1.4 | 29.7 ± 1.1 | 24.3 ± 0.88 | 19 ± 0.69 | 15.2 ± 0.55 | 12.3 ± 0.44 |
| C=CCCCCCC [oct-1-ene] + C[n+]1ccn(CCO)c1.O=S(=O)([O-])C(F)(F)C(F)(F)C(F)(F)C(F)(F)F | 53.9 ± 2 | 45.2 ± 1.6 | 36.6 ± 1.3 | 29.5 ± 1.1 | 24.3 ± 0.88 | 19.9 ± 0.72 |
| C#CCCCC [1-hexyne] + C[n+]1ccn(CCO)c1.O=S(=O)([O-])C(F)(F)C(F)(F)C(F)(F)C(F)(F)F | 10.4 ± 0.37 | 9.24 ± 0.33 | 7.92 ± 0.28 | 6.97 ± 0.25 | 6.03 ± 0.21 | 5.18 ± 0.19 |
| ClC(Cl)Cl [trichloromethane] + C[n+]1ccn(CCO)c1.O=S(=O)([O-])C(F)(F)C(F)(F)C(F)(F)C(F)(F)F | 2.27 ± 0.11 | 2.2 ± 0.11 | 2.11 ± 0.1 | 2.01 ± 0.1 | 1.91 ± 0.1 | 1.84 ± 0.1 |
| ClCCl [dichloromethane] + C[n+]1ccn(CCO)c1.O=S(=O)([O-])C(F)(F)C(F)(F)C(F)(F)C(F)(F)F | 2.14 ± 0.11 | 1.99 ± 0.1 | 1.85 ± 0.1 | 1.69 ± 0.09 | 1.54 ± 0.09 | 1.45 ± 0.09 |
| C1COCCO1 [1,4-dioxane] + C[n+]1ccn(CCO)c1.O=S(=O)([O-])C(F)(F)C(F)(F)C(F)(F)C(F)(F)F | 1.67 ± 0.09 | 1.64 ± 0.09 | 1.61 ± 0.09 | 1.59 ± 0.09 | 1.56 ± 0.09 | 1.53 ± 0.09 |
| CCCCCCCCC [nonane] + C[n+]1ccn(CCO)c1.O=S(=O)([O-])C(F)(F)C(F)(F)C(F)(F)C(F)(F)F | 157 ± 5.7 | 132 ± 4.8 | 105 ± 3.8 | 88 ± 3.2 | 71 ± 2.6 | 54.1 ± 2 |
| C1CCOC1 [tetrahydrofuran] + C[n+]1ccn(CCO)c1.O=S(=O)([O-])C(F)(F)C(F)(F)C(F)(F)C(F)(F)F | 1.73 ± 0.1 | 1.7 ± 0.09 | 1.64 ± 0.09 | 1.59 ± 0.09 | 1.52 ± 0.09 | 1.48 ± 0.09 |
| C#CCCCCC [1-heptyne] + C[n+]1ccn(CCO)c1.O=S(=O)([O-])C(F)(F)C(F)(F)C(F)(F)C(F)(F)F | 16.7 ± 0.6 | 15.1 ± 0.54 | 13.4 ± 0.48 | 11.9 ± 0.43 | 10.4 ± 0.37 | 9.29 ± 0.33 |
| CO [methanol] + C[n+]1ccn(CCO)c1.O=S(=O)([O-])C(F)(F)C(F)(F)C(F)(F)C(F)(F)F | 1.1 ± 0.08 | 1.02 ± 0.08 | 0.93 ± 0.08 | 0.9 ± 0.08 | 0.87 ± 0.08 | 0.82 ± 0.08 |
| Cc1ccccc1C [1,2-dimethylbenzene] + C[n+]1ccn(CCO)c1.O=S(=O)([O-])C(F)(F)C(F)(F)C(F)(F)C(F)(F)F | 10.4 ± 0.37 | 9.7 ± 0.35 | 8.9 ± 0.32 | 7.81 ± 0.28 | 7.04 ± 0.25 | 6.52 ± 0.23 |
| CCCCC [pentane] + C[n+]1ccn(CCO)c1.O=S(=O)([O-])C(F)(F)C(F)(F)C(F)(F)C(F)(F)F | 9.38 ± 0.34 | 6.94 ± 0.25 | 5.46 ± 0.2 | 4.34 ± 0.16 | 3.39 ± 0.14 | 2.75 ± 0.12 |
| CCCCCC [hexane] + C[n+]1ccn(CCO)c1.O=S(=O)([O-])C(F)(F)C(F)(F)C(F)(F)C(F)(F)F | 23.5 ± 0.85 | 17.7 ± 0.64 | 13.7 ± 0.49 | 10.6 ± 0.38 | 8 ± 0.29 | 6.31 ± 0.23 |
| C1CCCCC1 [cyclohexane] + C[n+]1ccn(CCO)c1.O=S(=O)([O-])C(F)(F)C(F)(F)C(F)(F)C(F)(F)F | 24.3 ± 0.88 | 19.1 ± 0.69 | 15.2 ± 0.55 | 11.7 ± 0.42 | 9.39 ± 0.34 | 7.54 ± 0.27 |
| C=CCCCCCCCC [1-decene] + C[n+]1ccn(CCO)c1.O=S(=O)([O-])C(F)(F)C(F)(F)C(F)(F)C(F)(F)F | 122 ± 4.5 | 107 ± 3.9 | 91.5 ± 3.3 | 79.6 ± 2.9 | 67.7 ± 2.5 | 59.2 ± 2.1 |
| CC(C)=O [acetone] + C[n+]1ccn(CCO)c1.O=S(=O)([O-])C(F)(F)C(F)(F)C(F)(F)C(F)(F)F | 0.93 ± 0.08 | 0.91 ± 0.08 | 0.9 ± 0.08 | 0.88 ± 0.08 | 0.85 ± 0.08 | 0.83 ± 0.08 |
| CC#N [acetonitrile] + C[n+]1ccn(CCO)c1.O=S(=O)([O-])C(F)(F)C(F)(F)C(F)(F)C(F)(F)F | 0.99 ± 0.08 | 0.97 ± 0.08 | 0.93 ± 0.08 | 0.9 ± 0.08 | 0.87 ± 0.08 | 0.84 ± 0.08 |
